Experimental data from patent US6127382A, “Amines substituted with a tetrahydroquinolinyl group an aryl or heteroaryl group and an alkyl group, having retinoid-like biological activity” (Allergan Sales, Inc., priority 1999, dated 2000).

Experiments:
RARγ = target: T1, RARγ (Homo sapiens, UniProt P13631); experiment: ligand binding assay, RARγ; settings: read-out: RAR Bind Ki γ
T1 sequence (P13631 1-454): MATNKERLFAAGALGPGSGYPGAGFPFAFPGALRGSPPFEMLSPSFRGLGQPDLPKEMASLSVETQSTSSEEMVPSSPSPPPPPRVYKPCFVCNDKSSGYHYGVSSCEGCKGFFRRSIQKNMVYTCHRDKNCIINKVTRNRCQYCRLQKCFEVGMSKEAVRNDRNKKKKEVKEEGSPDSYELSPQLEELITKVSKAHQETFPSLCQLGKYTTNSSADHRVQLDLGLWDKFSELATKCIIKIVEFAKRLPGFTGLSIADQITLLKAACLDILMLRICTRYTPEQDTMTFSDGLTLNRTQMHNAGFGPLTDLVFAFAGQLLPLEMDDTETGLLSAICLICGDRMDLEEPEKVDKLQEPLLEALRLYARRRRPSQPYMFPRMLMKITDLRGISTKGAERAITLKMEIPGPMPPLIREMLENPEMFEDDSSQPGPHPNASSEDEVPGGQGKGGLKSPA
Description: (§1) Other assays described below, measure the ability of the compounds of the present invention to bind to, and/or activate various retinoid receptor subtypes. When in these assays a compound binds to a given receptor subtype and activates the transcription of a reporter gene through that subtype, then the compound is considered an agonist of that receptor subtype. […] In the below described assays the ability of the compounds to bind to RARα, RARβ, RARγ, RXRα, RXRβ and RXRγ receptors, and the ability or inability of the compounds to activate transcription of a reporter gene through these receptor subtypes can be tested. […] However, some of the compounds of the invention may behave as retinoid antagonists or partial antagonists and/or as inverse agonists. Because of the complex distribution of the different retinoid receptors in various organs of the mammalian body partial agonists and partial antagonists and compounds which have the characteristics of both may lend themselves to particularly useful therapeutic applications and may avoid serious side effects of conventional retinoid drugs.
(§2) A holoreceptor transactivation assay and a ligand binding assay which measure the antagonist/agonist like activity of the compounds of the invention, or their ability to bind to the several retinoid receptor subtypes, respectively, are described in published PCT Application No. WO WO93/11755 (particularly on pages 30-33 and 37-41) published on Jun. 24, 1993, the specification of which is also incorporated herein by reference. A detailed experimental procedure for holoreceptor transactivations has been described by Heyman et al. Cell 68, 397-406, (1992); Allegretto et al. J. Biol. Chem. 268, 26625-26633, and Mangelsdorf et al. The Retinoids: Biology, Chemistry and Medicine, pp 319-349, Raven Press Ltd., New York, which are expressly incorporated herein by reference. The results obtained in this assay are expressed in EC50 numbers, as they are also in the chimeric receptor transactivation assay. The results of ligand binding assay are expressed in Kd numbers. (See Cheng et al. Biochemical Pharmacology Vol. 22 pp 3099-3108, expressly incorporated herein by reference.)
(§3) Table 1 discloses the activity of certain exemplary compounds of the invention in the above-described chimeric receptor transactivation assay, holoreceptor transactivation assay and a ligand binding assays. Particularly, the transactivation data pertaining to RAR receptors were obtained in the chimeric assay, and the data pertaining to transactivation of RXR receptors were obtained in the holoreceptor transactivation assay.

RARα = target: T2, RARα (Homo sapiens, UniProt P10276); experiment: ligand binding assay, RARα; settings: read-out: RAR Bind Ki α
T2 sequence (P10276 1-462): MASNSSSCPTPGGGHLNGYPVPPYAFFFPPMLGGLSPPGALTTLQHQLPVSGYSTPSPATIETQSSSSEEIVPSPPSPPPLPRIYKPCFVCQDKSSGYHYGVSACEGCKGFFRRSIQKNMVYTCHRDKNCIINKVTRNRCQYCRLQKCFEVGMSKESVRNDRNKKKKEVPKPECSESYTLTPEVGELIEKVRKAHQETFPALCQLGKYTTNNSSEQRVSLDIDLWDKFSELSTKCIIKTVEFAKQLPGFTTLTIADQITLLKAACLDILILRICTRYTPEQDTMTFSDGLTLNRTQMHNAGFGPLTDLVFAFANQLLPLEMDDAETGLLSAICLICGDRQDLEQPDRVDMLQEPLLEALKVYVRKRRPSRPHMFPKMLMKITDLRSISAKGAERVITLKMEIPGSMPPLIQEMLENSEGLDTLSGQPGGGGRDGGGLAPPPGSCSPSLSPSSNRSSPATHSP
Description: as §1, §2, §3

RXRα = target: T3, RXRα (Homo sapiens, UniProt P19793); experiment: ligand binding assay, RXRα; settings: read-out: RXR Bind Ki α
T3 construct: expressed in transfected cells
T3 sequence (P19793 1-462): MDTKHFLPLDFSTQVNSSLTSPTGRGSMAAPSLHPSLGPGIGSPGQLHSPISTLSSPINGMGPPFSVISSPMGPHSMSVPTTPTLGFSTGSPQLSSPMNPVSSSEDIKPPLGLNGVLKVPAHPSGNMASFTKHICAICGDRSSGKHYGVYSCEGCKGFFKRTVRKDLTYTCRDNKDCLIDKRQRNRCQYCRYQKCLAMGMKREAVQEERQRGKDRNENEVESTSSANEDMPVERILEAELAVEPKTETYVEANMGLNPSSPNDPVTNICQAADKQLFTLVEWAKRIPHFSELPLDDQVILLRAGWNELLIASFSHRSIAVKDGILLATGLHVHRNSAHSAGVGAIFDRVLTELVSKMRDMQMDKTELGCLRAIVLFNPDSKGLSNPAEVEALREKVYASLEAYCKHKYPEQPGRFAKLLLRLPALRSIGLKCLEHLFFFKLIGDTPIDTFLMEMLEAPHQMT
Description: as §1, §2, §3

RXRγ = target: T4, RXRγ (Homo sapiens, UniProt P48443); experiment: ligand binding assay, RXRγ; settings: read-out: RXR Bind Ki γ
T4 sequence (P48443 1-463): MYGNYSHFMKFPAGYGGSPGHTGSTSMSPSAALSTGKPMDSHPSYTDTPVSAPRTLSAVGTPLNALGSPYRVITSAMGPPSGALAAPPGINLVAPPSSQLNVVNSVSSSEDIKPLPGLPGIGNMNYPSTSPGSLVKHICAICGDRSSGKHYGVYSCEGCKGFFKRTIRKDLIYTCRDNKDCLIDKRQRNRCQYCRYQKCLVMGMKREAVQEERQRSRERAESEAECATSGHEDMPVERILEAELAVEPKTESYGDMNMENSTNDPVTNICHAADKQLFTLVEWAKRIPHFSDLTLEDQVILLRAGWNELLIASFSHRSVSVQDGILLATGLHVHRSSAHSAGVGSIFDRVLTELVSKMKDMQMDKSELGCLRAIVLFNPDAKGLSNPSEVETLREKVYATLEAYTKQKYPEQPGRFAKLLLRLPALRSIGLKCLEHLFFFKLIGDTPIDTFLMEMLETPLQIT
Description: as §1, §2, §3

RARβ = target: T5, RARβ (Homo sapiens, UniProt P10826); experiment: ligand binding assay, RARβ; settings: read-out: RAR Bind Ki β
T5 sequence (P10826 1-448 isoform P10826-2): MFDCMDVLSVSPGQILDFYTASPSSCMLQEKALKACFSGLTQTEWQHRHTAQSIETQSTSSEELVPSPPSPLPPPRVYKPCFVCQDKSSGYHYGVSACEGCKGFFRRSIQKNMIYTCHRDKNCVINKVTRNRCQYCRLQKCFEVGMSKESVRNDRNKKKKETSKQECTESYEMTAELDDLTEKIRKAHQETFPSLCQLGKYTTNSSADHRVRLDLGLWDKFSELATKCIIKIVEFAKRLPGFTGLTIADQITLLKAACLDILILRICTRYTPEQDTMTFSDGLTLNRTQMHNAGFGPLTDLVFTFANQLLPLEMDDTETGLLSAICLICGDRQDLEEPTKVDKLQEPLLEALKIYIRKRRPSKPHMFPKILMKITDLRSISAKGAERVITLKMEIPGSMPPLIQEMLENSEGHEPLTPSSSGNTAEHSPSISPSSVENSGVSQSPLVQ
Description: as §1, §2, §3

ornithine decarboxylase = settings: literature; cited from earlier work

Row | Ki (RARγ) [µM] | Ki (RARα) [µM] | Ki (RXRα) [µM] | Ki (RXRγ) [µM] | Ki (RARβ) [µM] | SMILES | inhibition of induction of ODC activity by TPA (ornithine decarboxylase)
1 | > 30 | > 30 | 56 | > 100 | > 30 | CC(C)N1C(=O)CC(C)(C)c2cc(N(C)c3ccc(C(=O)O)cc3)ccc21 [Compound 5, 4-[(1-Isopropyl-4,4-dimethyl-2-oxo-1,2,3,4-tetrahydroquinolin-6-yl)methylamino]benzoic Acid] | –
2 | – | – | – | – | – | CC1=C(/C=C/C(C)=C/C=C/C(C)=C/C(=O)O)C(C)(C)CCC1 [Retinoic acid, retinoic acid] | inhibits this induction of ODC activity by TPA
